Here are results for 16 molecules from ChEMBL document CHEMBL4359815, “Design, synthesis, antitumor activities and biological studies of novel diaryl substituted fused heterocycles as dual ligands targeting tubulin and katanin” (Eur J Med Chem, 2019).

One may read the IC50 as the point on the concentration scale where inhibition reaches its midpoint.

One test relates to A2780. Nature of the test: Antiproliferative activity against human A2780 cells assessed as reduction in cell viability after 48 hrs by MTT assay. The following applies: A2780, 48 h. In kind it is functional, cell-based. Background: Formazan colour is commonly taken as a measure of viable cells.
`CCOc1ccc(-c2cc3c(cn2)[nH]c(=O)n3-c2cc(OC)c(OC)c(OC)c2)cc1F`: the IC50 was found to be 4330 nM.

Regarding `COc1ccc(-n2c(=O)[nH]c3cnc(-c4cc(OC)c(OC)c(OC)c4)cc32)cc1O`, the half-inhibitory concentration (IC50) was > 20000 nM.

For the molecule `CCOc1ccc(-c2cc3c(cn2)[nH]c(=O)n3-c2cc(OC)c(OC)c(OC)c2)cc1`, the IC50 turned out to be 2980 nM.

Take `COc1ccc(-c2nc3cnccc3n2-c2cc(OC)c(OC)c(OC)c2)cc1O`: the IC50 is > 20000 nM.

Consider `COc1ccc(-c2cc3c(cn2)[nH]c(=O)n3-c2cc(OC)c(OC)c(OC)c2)cc1`, for which the IC50 came to 930 nM.

For `CNC(=O)c1nc(-c2ccc(OC)c(O)c2)cc2c1[nH]c(=O)n2-c1cc(OC)c(OC)c(OC)c1`, the concentration for half-maximal inhibition (IC50) was determined as 610 nM.

Regarding `COc1ccc(-c2cc3c(cn2)[nH]c(=O)n3-c2cc(OC)c(OC)c(OC)c2)cc1F`, the IC50 came to 730 nM.

On to `COc1ccc(-c2cc3c(cn2)n(C(C)C)c(=O)n3-c2cc(OC)c(OC)c(OC)c2)cc1O`, for which the IC50 came out at 3160 nM.

Turning to `CCn1c(=O)n(-c2cc(OC)c(OC)c(OC)c2)c2cc(-c3ccc(OC)c(O)c3)ncc21`, the IC50 was > 20000 nM.

Take `COc1ccc(-c2cncc3ncn(-c4cc(OC)c(OC)c(OC)c4)c23)cc1O`: the IC50 was > 20000 nM.

In the case of `COc1ccc(-c2cc3c(cn2)n(CC(N)=O)c(=O)n3-c2cc(OC)c(OC)c(OC)c2)cc1O`, the IC50 stood at 9880 nM.

For the molecule `COc1ccc(-c2cc3c(cn2)[nH]c(=O)n3-c2cc(OC)c(OC)c(OC)c2)cc1O`, the IC50 is 240 nM.

For the molecule `COc1ccc(-c2cc3c(cn2)[nH]c(=O)n3-c2cc(OC)c(OC)c(OC)c2)cc1N`, the IC50 was determined as 640 nM.

Turning to `COc1ccc(-c2cncc3[nH]c(=O)n(-c4cc(OC)c(OC)c(OC)c4)c23)cc1`, the IC50 is > 20000 nM.

For `COc1ccc(-c2cc3c(cn2)ncn3-c2cc(OC)c(OC)c(OC)c2)cc1O`, the IC50 is 160 nM.

Regarding `COc1ccc(-c2cc3c(cn2)n(C)c(=O)n3-c2cc(OC)c(OC)c(OC)c2)cc1O`, the IC50 was determined as 1720 nM.

The next test has as its system A549. Nature of the test: Antiproliferative activity against human A549 cells assessed as reduction in cell viability after 48 hrs by MTT assay. In kind it is functional, cell-based. To be noted: A549, 48 h.
In the case of `CCOc1ccc(-c2cc3c(cn2)[nH]c(=O)n3-c2cc(OC)c(OC)c(OC)c2)cc1F`, the IC50 amounted to 2540 nM.

Turning to `COc1ccc(-n2c(=O)[nH]c3cnc(-c4cc(OC)c(OC)c(OC)c4)cc32)cc1O`, the IC50 is > 20000 nM.

For the molecule `CCOc1ccc(-c2cc3c(cn2)[nH]c(=O)n3-c2cc(OC)c(OC)c(OC)c2)cc1`, the IC50 turned out to be 5300 nM.

Consider `COc1ccc(-c2nc3cnccc3n2-c2cc(OC)c(OC)c(OC)c2)cc1O`, for which the IC50 was > 20000 nM.

With `COc1ccc(-c2cc3c(cn2)[nH]c(=O)n3-c2cc(OC)c(OC)c(OC)c2)cc1`, the IC50 is 1120 nM.

Consider `CNC(=O)c1nc(-c2ccc(OC)c(O)c2)cc2c1[nH]c(=O)n2-c1cc(OC)c(OC)c(OC)c1`, for which the IC50 worked out at 880 nM.

For the molecule `COc1ccc(-c2cc3c(cn2)[nH]c(=O)n3-c2cc(OC)c(OC)c(OC)c2)cc1F`, the IC50 is 2020 nM.

For the molecule `COc1ccc(-c2cc3c(cn2)n(C(C)C)c(=O)n3-c2cc(OC)c(OC)c(OC)c2)cc1O`, the IC50 came out at 7210 nM.

In the case of `CCn1c(=O)n(-c2cc(OC)c(OC)c(OC)c2)c2cc(-c3ccc(OC)c(O)c3)ncc21`, the IC50 is > 20000 nM.

As to `COc1ccc(-c2cncc3ncn(-c4cc(OC)c(OC)c(OC)c4)c23)cc1O`, the IC50 was > 20000 nM.

In the case of `COc1ccc(-c2cc3c(cn2)n(CC(N)=O)c(=O)n3-c2cc(OC)c(OC)c(OC)c2)cc1O`, the IC50 was determined as 10900 nM.

With `COc1ccc(-c2cc3c(cn2)[nH]c(=O)n3-c2cc(OC)c(OC)c(OC)c2)cc1O`, the IC50 stood at 630 nM.

Consider `COc1ccc(-c2cc3c(cn2)[nH]c(=O)n3-c2cc(OC)c(OC)c(OC)c2)cc1N`, for which the IC50 amounted to 1140 nM.

`COc1ccc(-c2cncc3[nH]c(=O)n(-c4cc(OC)c(OC)c(OC)c4)c23)cc1`: the IC50 is > 20000 nM.

Consider `COc1ccc(-c2cc3c(cn2)ncn3-c2cc(OC)c(OC)c(OC)c2)cc1O`, for which the IC50 came to 360 nM.

As for `COc1ccc(-c2cc3c(cn2)n(C)c(=O)n3-c2cc(OC)c(OC)c(OC)c2)cc1O`, the IC50 came to 3520 nM.

The test system of another test is HeLa. Nature of the test: Antiproliferative activity against human HeLa cells assessed as reduction in cell viability after 48 hrs by MTT assay. In kind it is functional, cell-based.
Settings: not given
For `CCOc1ccc(-c2cc3c(cn2)[nH]c(=O)n3-c2cc(OC)c(OC)c(OC)c2)cc1F`, the IC50 is 2870 nM.

On to `COc1ccc(-n2c(=O)[nH]c3cnc(-c4cc(OC)c(OC)c(OC)c4)cc32)cc1O`, for which the 50% inhibitory concentration (IC50) is > 20000 nM.

For `CCOc1ccc(-c2cc3c(cn2)[nH]c(=O)n3-c2cc(OC)c(OC)c(OC)c2)cc1`, the IC50 is 3730 nM.

As to `COc1ccc(-c2nc3cnccc3n2-c2cc(OC)c(OC)c(OC)c2)cc1O`, the IC50 is > 20000 nM.

Take `COc1ccc(-c2cc3c(cn2)[nH]c(=O)n3-c2cc(OC)c(OC)c(OC)c2)cc1`: the IC50 came to 1210 nM.

`CNC(=O)c1nc(-c2ccc(OC)c(O)c2)cc2c1[nH]c(=O)n2-c1cc(OC)c(OC)c(OC)c1`: the IC50 amounted to 1340 nM.

Regarding `COc1ccc(-c2cc3c(cn2)[nH]c(=O)n3-c2cc(OC)c(OC)c(OC)c2)cc1F`, the IC50 was found to be 2210 nM.

Take `COc1ccc(-c2cc3c(cn2)n(C(C)C)c(=O)n3-c2cc(OC)c(OC)c(OC)c2)cc1O`: the IC50 worked out at 4240 nM.

Take `CCn1c(=O)n(-c2cc(OC)c(OC)c(OC)c2)c2cc(-c3ccc(OC)c(O)c3)ncc21`: the IC50 is > 20000 nM.

With `COc1ccc(-c2cncc3ncn(-c4cc(OC)c(OC)c(OC)c4)c23)cc1O`, the IC50 was > 20000 nM.

For the molecule `COc1ccc(-c2cc3c(cn2)n(CC(N)=O)c(=O)n3-c2cc(OC)c(OC)c(OC)c2)cc1O`, the IC50 is > 20000 nM.

Take `COc1ccc(-c2cc3c(cn2)[nH]c(=O)n3-c2cc(OC)c(OC)c(OC)c2)cc1O`: the IC50 amounted to 490 nM.

As for `COc1ccc(-c2cc3c(cn2)[nH]c(=O)n3-c2cc(OC)c(OC)c(OC)c2)cc1N`, the IC50 was found to be 770 nM.

Consider `COc1ccc(-c2cncc3[nH]c(=O)n(-c4cc(OC)c(OC)c(OC)c4)c23)cc1`, for which the IC50 was > 20000 nM.

Turning to `COc1ccc(-c2cc3c(cn2)ncn3-c2cc(OC)c(OC)c(OC)c2)cc1O`, the IC50 amounted to 170 nM.

Take `COc1ccc(-c2cc3c(cn2)n(C)c(=O)n3-c2cc(OC)c(OC)c(OC)c2)cc1O`: the IC50 was 2220 nM.

The subject of the next test is HCT-116. Nature of the test: Antiproliferative activity against human HCT116 cells assessed as reduction in cell viability after 48 hrs by MTT assay. In kind it is functional, cell-based. The following applies: HCT-116, 48 h.
With `CCOc1ccc(-c2cc3c(cn2)[nH]c(=O)n3-c2cc(OC)c(OC)c(OC)c2)cc1F`, the IC50 is 7220 nM.

`COc1ccc(-n2c(=O)[nH]c3cnc(-c4cc(OC)c(OC)c(OC)c4)cc32)cc1O`: the IC50 was > 20000 nM.

As for `CCOc1ccc(-c2cc3c(cn2)[nH]c(=O)n3-c2cc(OC)c(OC)c(OC)c2)cc1`, the IC50 was found to be 6660 nM.

For the molecule `COc1ccc(-c2nc3cnccc3n2-c2cc(OC)c(OC)c(OC)c2)cc1O`, the IC50 was > 20000 nM.

For the molecule `COc1ccc(-c2cc3c(cn2)[nH]c(=O)n3-c2cc(OC)c(OC)c(OC)c2)cc1`, the IC50 was 840 nM.

In the case of `CNC(=O)c1nc(-c2ccc(OC)c(O)c2)cc2c1[nH]c(=O)n2-c1cc(OC)c(OC)c(OC)c1`, the IC50 worked out at 2360 nM.

Take `COc1ccc(-c2cc3c(cn2)[nH]c(=O)n3-c2cc(OC)c(OC)c(OC)c2)cc1F`: the IC50 worked out at 910 nM.

With `COc1ccc(-c2cc3c(cn2)n(C(C)C)c(=O)n3-c2cc(OC)c(OC)c(OC)c2)cc1O`, the IC50 is 6660 nM.

On to `CCn1c(=O)n(-c2cc(OC)c(OC)c(OC)c2)c2cc(-c3ccc(OC)c(O)c3)ncc21`, for which the IC50 is > 20000 nM.

Regarding `COc1ccc(-c2cncc3ncn(-c4cc(OC)c(OC)c(OC)c4)c23)cc1O`, the 50% inhibitory concentration (IC50) was > 20000 nM.

As for `COc1ccc(-c2cc3c(cn2)n(CC(N)=O)c(=O)n3-c2cc(OC)c(OC)c(OC)c2)cc1O`, the IC50 came out at 8890 nM.

Take `COc1ccc(-c2cc3c(cn2)[nH]c(=O)n3-c2cc(OC)c(OC)c(OC)c2)cc1O`: the IC50 is 340 nM.

For the molecule `COc1ccc(-c2cc3c(cn2)[nH]c(=O)n3-c2cc(OC)c(OC)c(OC)c2)cc1N`, the IC50 is 820 nM.

Turning to `COc1ccc(-c2cncc3[nH]c(=O)n(-c4cc(OC)c(OC)c(OC)c4)c23)cc1`, the IC50 was > 20000 nM.

Regarding `COc1ccc(-c2cc3c(cn2)ncn3-c2cc(OC)c(OC)c(OC)c2)cc1O`, the IC50 is 280 nM.

For the molecule `COc1ccc(-c2cc3c(cn2)n(C)c(=O)n3-c2cc(OC)c(OC)c(OC)c2)cc1O`, the IC50 amounted to 1060 nM.
